Test results: patent publication EP0234113A1, “2,3-Dihydro-1H-phenalene-2-amino compounds as anti-psychotic drugs” (THE UPJOHN COMPANY, priority 1985, dated 1987)
“And” between values parts separate entries of the source, which are not always exact repeats. Identical values can stand only once. “Also recorded” adds a separate entry of the source. Like-named read-outs stand apart in the source and are kept apart here.

Tests used:
LSD = LSD ligand binding, rat brain homogenates; conditions: 1μM, - indicates ligand was displaced
[1] = test system: dopamine metabolites HVA, DOPAC, and 3MT; assay: Dopamine metabolites in rat brain; type: in vivo; conditions: percentage of control; 3 mg/kg of chlorpromazine, 30 mg/kg clozapine or U-64,273A; Sprague-Dawley rat
plasma prolactin = assay: Plasma prolactin; type: in vivo; conditions: Sprague-Dawley rat
alpha-2 = assay: Alpha-2 ligand binding, rat brain homogenates; conditions: 1μM, - indicates ligand was displaced
Dopamine (3H-spiperone) = assay: Receptor Binding Assay with 3H-spiperone (Dopamine Binding Assay), rat brain homogenate; conditions: 1μM; rat brain homogenates; - indicates ligand was displaced
Description: The Receptor Binding Assay test for antipsychotic acitvity, was conducted as follows:
A rat brain homogenate was prepared (1) by homogenizing a whole rat brain minus the cerebellum in 10 ml of 0.05M THAM-HC1, pH 7.4, using a Polytron at a setting of 7 for 30 sec. and centrifuging at 15,000xg for 10 min. The supernatant was discarded, the pellet resuspended in 10 ml of buffer using the Polytron for 10 sec., and the centrifugation repeated. The pellet was resuspended and diluted to 100 times the original tissue weight with buffer. Then 100 ml of the homogenate was diluted to 400 ml with buffer.
The test drug was weighed out in a scintillation vial in a 1-5 mg ammount. They were dissolved by adding 0.5 ml of N-N-dimethylformamide of (DMF) and then 0.05 ml of 1M acetic acid, and vortexed to solubilize the drug. Then 10 ml of deionized and filtered water was added to the required volume. All compounds were tested at a single concentration of 1 uM.
Samples were prepared for incubation using an ^3H-spiperone (antipsychotic).
Incubation was conducted at 30°C for 30 min. on a shaking water bath. Every 30 sec., 24 tubes were filled with 1 ml of homogenate and put into the bath (this is done every 3 min. until all tubes are in the bath). Upon completion of the incubation procedure, the samples are filtered and rinsed.
The punched filters are dropped into vials, which are in turn filled with ACS liquid scintillation fluid and capped and counted in a liquid scintillation counter. Counting data is recorded and analyzed.
Results are expressed as percent decrease from control.

Locomotor activity [2] = assay: Antagonism of apomorphine locomotor activity in reserpinized mouse; type: in vivo
From the text: (§1) Table 3. […] A. Behavioral effects in the rat. B. Behavioral effects in the monkey. C. Doses required to antagonize the indicated behavioral effects of amphetamine. D. Doses required to antagonize the indicated behavioral effects of apomorphine.

alpha-1 = assay: Alpha-1 ligand binding, rat brain homogenates; conditions: 1μM, i.a. = inactive
muscarinic = assay: Muscarinic ligand binding, rat brain homogenates; conditions: 1μM, - indicates ligand was displaced
[3] = test system: Apomorphone-Induced Case Climbing; assay: Apomorphine antagonism (Apomorphine gnawing test; apomorphine-induced cage climbing); type: in vivo, Mouse; conditions: mouse
From the text: (§2) The Effect on Body Temperature (Hypothermia) Test and the Antagonism of Apomorphone-Induced Case Climbing (ACC), (Apomorphine Gnawing Test) are described on page 1398 of the publication, Journal of Medicinal Chemistry, Vol. 22, No. 11, pp. 1390-1398, in an article entitled "6-Aryl-4H-s-triazolo[4,3-a][1,4]benzodiazepines....Action" by J. B. Hester, Jr., et al.
as §1

Discrimination = assay: Antagonism of apomorphine discrimination; type: in vivo; conditions: (p) = partial activity
From the text: as §1

Catalepsy = assay: Catalepsy; conditions: rat
From the text: as §1

dopamine neurons [4] = assay: Depression of dopamine neuron firing rates by the drug alone; type: in vivo, rats; conditions: for ED50 / Emax: Rattus norvegicus, iv; for Emax: read-out: MAXIMUM EFFECT (per cent decrease)
Description: (§3) Table 2. Dopamine neuron firing rates were recorded according to published procedures and drugs were injected intravenously in chloral hydrate anesthetized rats. A. Ability of drugs to reverse the depression in firing rates of dopamine neurons by 1 to 2 mg/kg amphetamine. The maximum effect is the maximum amount of the amphetamine effect that was reversed, even when doses were increased beyond dose causing maximum effect. An effect greater than 100% indicates excitation of the neuron beyond its' control rate whereas an effect less than 100% indicates partial agonist effects. B. Depression of dopamine neurons by full agonist apomorphine and partial agonists TDHL, (-)PPP and U-64,273A. Maximum effect is maximum depression that could be realized even after increasing doses beyong the dose causing maximum effect. For both A and B, the ED50 is the dose causing 50% of the respective antagonistic (A) or agonist (B) effect.

dopamine neurons [5] = assay: Reversal of amphetamine depression of dopamine neuron firing rates; type: in vivo, rats
Description: as §3, with “An effect greater than 100% indicates excitation of the neuron beyond its' control rate whereas an effect less than 100% indicates partial agonist effects.” left out

Conditioned Avoidance = assay: Conditioned avoidance; type: in vivo; conditions: rat; (p) = partial activity, i.a. = inactive
From the text: as §1

body temperature = assay: Hypothermia Test (effect on body temperature); type: in vivo, CF-1 male mice; conditions: either test: hypothermic or apomorphine antagonism
Description: as §2
For the tests here, the Hypothermia Test procedure was run as follows:
A group of four CF-1 male mice (18-22 g each) was injected intraperitoneally with the test compound prepared in 0.25 percent w/v methylcellulose in water solution. After 45 min, abdominal temperature of each mouse was measured using a thermister probe. A control group of four mice was treated with vehicle only and the temperature of the control group was taken in a similar manner. A compound was considered to have a significant effect on body temperature if the mean temperature in the test compound treated group deviated more than 3.5°C from the mean temperature of the parallel control group. Stimulants tend to elevate temperatures; depressants tend to lower body temperature.

[6] = test system: lethal dose of d-amphetamine; assay: Antagonism of amphetamine toxicity; type: in vivo
From the text: as §1

locomotor stimulation = assay: Locomotor stimulation in reserpinized mice, drug given by itself; type: in vivo
From the text: Consistant with its having a minor amount of agonist activity, the overall behavioral effects of U-64,273A conform to that of a weak DA antagonist (Table 3). […] When given by itself, U-64,273A affected locomotor activities in rodents in a way resembling both DA auto-receptor and postsynaptic receptor agonists.

Emesis = assay: Antagonism of apomorphine emesis; type: in vivo
From the text: as §1

locomotor activity [7] = assay: Antagonism of apomorphine locomotor activity in rat; type: in vivo; conditions: i.a. = inactive
From the text: as §1

Stereotypy = assay: Antagonism of apomorphine stereotypy; type: in vivo; conditions: i.a. = inactive, listed as U-64273A
From the text: as §1

Serotonin metabolites = Serotonin metabolites in rat brain; type: in vivo, Sprague-Dawley rat; conditions: percentage of control; 1 mg/kg haloperidol, 10 mg/kg of clozapine, 30 mg/kg U-64,273A
6-OH DA Turning = assay: Antagonism of amphetamine: 6-OH DA turning; type: in vivo; conditions: i.a. = inactive
From the text: as §1

locomotor activity [8] = assay: Antagonism of amphetamine: locomotor activity; type: in vivo; conditions: i.a. = inactive
From the text: as §1

[9] = dopamine neuron firing, Table 2

## CN(C)CCCN1c2ccccc2Sc2ccc(Cl)cc21 [CHLORPROMAZINE, chlorpromazine, reference compound]
LSD
  LSD, percentage of ligand displaced: -76.8%
[1]
  3MT: 365%
  DOPAC: 375%
  HVA: 225%
Plasma prolactin; 3 mg/kg of chlorpromazine, 30 mg/kg clozapine or U-64,273A
  Plasma Prolactin: 1057%
alpha-2
  alpha-2, percentage of ligand displaced: -83.4%
Dopamine (3H-spiperone)
  spiperone, percentage of ligand displaced: -81.6%
Locomotor activity [2]
  Locomotor activity, reserpinized mouse, 3 mg/kg (antag. of apomorphine): 85% (CPZ)
alpha-1
  alpha-1, percentage of ligand displaced: -98.6%
muscarinic
  muscarinic, percentage of ligand displaced: -96.4%

## CNC1Cc2cccc3cccc(c23)C1 [U-64,273A, 2,3-dihydro-N-mono-methyl-lH-phenalen-2-amine]
LSD
  LSD, percentage of ligand displaced: -67.3%
[3]
  Cage Climbing Mouse, dose required to antagonize apomorphine: antagonized apomorphine
Discrimination
  Monkey Discrimination, dose required to antagonize apomorphine: antagonized apomorphine
[1]
  3MT: 50%
  DOPAC: 80%
Catalepsy; i.a. = inactive
  Catalepsy, active dose: i.a.
Plasma prolactin; cell marks this value (10), probably 10 mg/kg
  Plasma Prolactin: 1%
alpha-2
  alpha-2, percentage of ligand displaced: -37.5%
Dopamine neurons [4]; Neuron
  ED50: 0.07 mg/kg
  Emax: 30%
Dopamine neurons [4]; [9]
  agonist share: 30%
Dopamine neurons [4]; rat, in vivo
  inhibition of DA neuronal firing when given alone (in words): weakly inhibit
Dopamine neurons [5]; Rattus norvegicus, Neuron, iv
  ED50: 5 µg/kg
Dopamine neurons [5]; Rattus norvegicus, Neuron, iv, read-out: MAXIMUM EFFECT (per cent reversal)
  Emax: 69%
Dopamine neurons [5]; [9]
  antagonist share: 70%
Dopamine neurons [5]; intravenous, anesthetized rats
  reversal of amphetamine's depression of DA neuronal firing (in words): potent in reversing the effect of d-amphetamine on nigral DA neuronal firing; also recorded: not quite complete
Conditioned Avoidance
  Conditioned Avoidance, active dose: suppressed conditioned avoidance behavior of rats with a limited efficacy
Body temperature
  active in either the hypothermic or the apomorphine antogonism test: active
[6]
  Mouse Toxicity, dose required to antagonize amphetamine: did not protect mice
Locomotor stimulation
  locomotor stimulation in reserpinized mice: no locomotor stimulation
Emesis
  Dog Emesis, dose required to antagonize apomorphine: antagonized apomorphine
Locomotor activity [7]
  Locomotor activity, rat, dose required to antagonize apomorphine: i.a.
Dopamine (3H-spiperone)
  spiperone, percentage of ligand displaced: relatively weak and -46.2%
Locomotor activity [2]
  Locomotor activity, reserpinized mouse, 3 mg/kg (antag. of apomorphine): antagonized apomorphine
Locomotor activity [2]; listed as U-64273A
  Locomotor activity, reserpinized mouse, 3 mg/kg (antag. of apomorphine): 47% antag.
Stereotypy
  Rat Stereotypy, dose required to antagonize apomorphine: i.a.
Serotonin metabolites
  5HIAA: 76%
  5HT: 128%
  5HTP: 37%
alpha-1
  alpha-1, percentage of ligand displaced: i.a.
muscarinic
  muscarinic, percentage of ligand displaced: -11.7%
6-OH DA Turning
  6-OH DA Turning, rat, dose required to antagonize amphetamine: antagonized d-amphetamine
Locomotor activity [8]
  RAT locomotor activity, dose required to antagonize amphetamine: i.a.

## CN1CCc2cccc3c2[C@H]1Cc1ccc(O)c(O)c1-3 [Apomorphine, apomorphine]
Catalepsy; in vivo
  Catalepsy, active dose: i.a.
Dopamine neurons [4]; Neuron, dose causing 50% of the agonist effect, intravenously, anesthetized rats, read-out: ED50
  ED50: 0.01 mg/kg
Dopamine neurons [4]; B. depress DA neuron firing rates, intravenously, chloral hydrate anesthetized rats
  Emax: 100%
6-OH DA Turning
  6-OH DA Turning, rat, dose required to antagonize amphetamine: i.a.
